PMC4700268 (Frontiers in Pharmacology, 2016)
Read-outs that look alike come from different tables or passages of the source.

Assays:
[1] = test system: HeLa cells transiently transfected with hOAT1
Method: The Hela cells were plated in a 96-well plate and transfected with hOAT1 as described above. […] The controls were prepared simultaneously. After 24 h of incubation, the reagent from the kit CellTiter 96 AQueous One Solution Cell Proliferation Assay (CellTiter 96, PROMEGA, USA) was added. After 1.5 h of incubation at 37°C the absorbance was recorded at 490 nm.

[2] = ref Matthews, 2006, Yan et al.; cited from earlier work
hCNT2 [3] = target: T1, hCNT2 (Homo sapiens, UniProt O43868); assay: [3H]ETV uptake in hCNT2 transfected cells; details: 5 min, 37°C
T1 sequence (O43868 1-658): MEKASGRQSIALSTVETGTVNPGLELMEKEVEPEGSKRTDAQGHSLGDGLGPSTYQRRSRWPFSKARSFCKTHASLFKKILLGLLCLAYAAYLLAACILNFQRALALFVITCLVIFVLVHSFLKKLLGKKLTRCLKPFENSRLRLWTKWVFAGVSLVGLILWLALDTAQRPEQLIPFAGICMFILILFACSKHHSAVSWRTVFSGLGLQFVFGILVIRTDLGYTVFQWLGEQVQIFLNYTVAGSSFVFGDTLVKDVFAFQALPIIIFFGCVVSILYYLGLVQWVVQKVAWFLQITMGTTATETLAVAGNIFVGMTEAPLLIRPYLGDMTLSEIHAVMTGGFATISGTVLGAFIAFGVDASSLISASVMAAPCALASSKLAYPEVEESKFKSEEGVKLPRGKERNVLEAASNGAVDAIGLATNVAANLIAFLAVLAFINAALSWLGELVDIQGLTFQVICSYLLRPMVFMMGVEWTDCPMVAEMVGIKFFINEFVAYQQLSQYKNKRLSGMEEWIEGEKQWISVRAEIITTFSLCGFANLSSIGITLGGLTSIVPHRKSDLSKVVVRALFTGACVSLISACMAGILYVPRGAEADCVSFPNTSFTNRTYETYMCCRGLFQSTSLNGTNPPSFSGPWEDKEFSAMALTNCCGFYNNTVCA

hOAT1 [4] = target: T2, hOAT1 (Homo sapiens, UniProt Q4U2R8); assay: [3H]ETV uptake in hOAT1 transfected cells; format: in vitro ADME; parameters: host or cells: HeLa cells, transient transfection; details: 5 min, 37°C
T2 sequence (Q4U2R8 1-563): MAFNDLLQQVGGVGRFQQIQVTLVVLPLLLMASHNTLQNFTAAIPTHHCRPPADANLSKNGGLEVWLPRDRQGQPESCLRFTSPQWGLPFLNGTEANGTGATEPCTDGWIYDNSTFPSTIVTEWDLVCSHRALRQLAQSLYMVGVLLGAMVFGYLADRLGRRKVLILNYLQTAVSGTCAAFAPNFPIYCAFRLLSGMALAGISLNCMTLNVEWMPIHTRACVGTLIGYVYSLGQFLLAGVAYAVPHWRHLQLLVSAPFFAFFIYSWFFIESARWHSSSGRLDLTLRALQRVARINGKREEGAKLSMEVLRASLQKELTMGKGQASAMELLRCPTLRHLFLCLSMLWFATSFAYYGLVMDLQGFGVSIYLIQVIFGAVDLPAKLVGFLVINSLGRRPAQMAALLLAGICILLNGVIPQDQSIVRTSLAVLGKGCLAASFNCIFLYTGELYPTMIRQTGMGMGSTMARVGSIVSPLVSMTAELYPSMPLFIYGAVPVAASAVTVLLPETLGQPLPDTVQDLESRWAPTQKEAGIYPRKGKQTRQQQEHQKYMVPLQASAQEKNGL

hOAT1 [5] = target: T2, hOAT1; assay: Inhibition by ETV of [3H]adefovir, [3H]tenofovir, [3H]cidofovir accumulation in hOAT1 transfected HeLa cells; format: in vitro ADME; parameters: host or cells: HeLa cells, transient transfection; details: 2 min
Method: Inhibitory transport assays were carried out in 24-well plates as described previously ([Mandikova et al., 2013]). Transport assays in HeLa cells transiently transfected with the hOAT1 expression construct were performed 48 h after transfection. Transport assays in MDCK II cells transiently transfected with hOCT2, hCNT2 or hCNT3 were performed 24 h after transfection. The cultivation medium was removed and the cells were washed with transport solution and preincubated for 10 min at 37°C. The standard radiolabeled substrate or tested radioactive antiviral substance dissolved in transport solution was added to the cells and incubated for 2 min. […] After the designated time period, the incubation was stopped by washing the cells twice with ice-cold solution containing 137 mM NaCl and 10 mM HEPES, pH 7.4. The cells were disintegrated with 0.1 mL of Triton X 0.5% in 100 mM NaOH for 1 h. […] IC50 values were calculated using non-linear regression analysis using GraphPad Prism software (version 6).

hCNT2 [6] = target: T1, hCNT2; assay: Inhibition of [3H]uridine uptake in hCNT2 transfected MDCK II cells; format: in vitro ADME; parameters: host or cells: MDCK II cells, transient transfection; details: 1 μM [3H]uridine, MDCK II cells transiently transfected with hCNT2, 2 min, 37°C; read-out: IC50, inhibition of hCNT2 mediated transport
Method: Inhibitory transport assays were carried out in 24-well plates as described previously ([Mandikova et al., 2013]). Transport assays in HeLa cells transiently transfected with the hOAT1 expression construct were performed 48 h after transfection. Transport assays in MDCK II cells transiently transfected with hOCT2, hCNT2 or hCNT3 were performed 24 h after transfection. The cultivation medium was removed and the cells were washed with transport solution and preincubated for 10 min at 37°C. The standard radiolabeled substrate or tested radioactive antiviral substance dissolved in transport solution was added to the cells and incubated for 2 min. [^3H]PAH (1 μM) was used as a prototypical substrate for OATs, [^3H]MPP^+ (1 μM) for OCTs and [^3H]uridine (1 μM) for CNTs. […] After the designated time period, the incubation was stopped by washing the cells twice with ice-cold solution containing 137 mM NaCl and 10 mM HEPES, pH 7.4. The cells were disintegrated with 0.1 mL of Triton X 0.5% in 100 mM NaOH for 1 h.
IC50 values were calculated using non-linear regression analysis using GraphPad Prism software (version 6).

hOAT1 [7] = target: T2, hOAT1; parameters: host or cells: HeLa cells, transient transfection; method as in Xu et al., 2013; details: ref Xu et al., 2013; read-out: Km for hOAT1, previously published; cited from earlier work

- Vmax of [3H]ETV uptake by hCNT2 (hCNT2 [3]): 68.88 nmol/mg protein/5 min
- Vmax of [3H]ETV uptake by hOAT1 (hOAT1 [4]): 0.91 nmol/mg protein/5 min
- IC50 (hOAT1 [5]; IC50, inhibition of [3H]cidofovir accumulation by hOAT1, [3H]cidofovir 70 μM): 695 µM
- IC50 (hOAT1 [5]; [3H]adefovir 0.1 μM, read-out: IC50, inhibition of [3H]adefovir accumulation by hOAT1): 432 µM
- IC50 (hOAT1 [5]; [3H]tenofovir 0.5 μM, read-out: IC50, inhibition of [3H]tenofovir accumulation by hOAT1): 704 µM
- IC50 (hCNT2 [6]): 242 µM
SMILES: C=C1[C@H](CO)[C@@H](O)C[C@@H]1n1cnc2c(=O)[nH]c(N)nc21 [ETV, Entecavir]
- Effect of hOAT1 expression on cytotoxicity (cell viability) [1]: no significant effect on cell viability
- Therapeutic concentrations in plasma following regular doses [2]: below 50 nM
- Km (hOAT1 [7]): 250 µM
